Numbers after ± are expanded uncertainties.
Assay: refractive index (Na D-line) (dimensionless)
Settings: 101.33 kPa, Standard Abbe refractometry

Row | SMILES | refractive index (278.45 K, Crystal) | refractive index (288.35 K, Liquid crystal of unknown type) | refractive index (298.15 K, Liquid crystal of unknown type) | refractive index (308.25 K, Liquid crystal of unknown type) | refractive index (313.21 K, Liquid crystal of unknown type) | refractive index (323.45 K, Liquid crystal of unknown type) | refractive index (333.25 K, Liquid crystal of unknown type) | refractive index (278.35 K, Liquid crystal of unknown type) | refractive index (288.25 K, Liquid crystal of unknown type) | refractive index (298.05 K, Liquid crystal of unknown type) | refractive index (308.22 K, Liquid crystal of unknown type) | refractive index (318.23 K, Liquid crystal of unknown type) | refractive index (328.05 K, Liquid crystal of unknown type) | refractive index (338.05 K, Liquid crystal of unknown type) | refractive index (341.15 K, Liquid crystal of unknown type) | refractive index (343.25 K, Liquid crystal of unknown type)
1 | CCCCCCCC/C=C\CCCCCCCC(=O)O.NCCO [2-hydroxyethylammonium oleate] | 1.496 ± 0.00069 | 1.49406 ± 0.00068 | 1.48994 ± 0.00068 | 1.48558 ± 0.00068 | 1.48343 ± 0.00068 | 1.47901 ± 0.00068 | 1.4747 ± 0.00068 | – | – | – | – | – | – | – | – | –
2 | CCCCCCCC/C=C\CCCCCCCC(=O)[O-].OCC[NH2+]CCO [bis(2-hydroxyethyl)ammonium oleate] | – | – | – | – | – | – | – | 1.4956 ± 0.00068 | 1.49226 ± 0.00068 | 1.48855 ± 0.00068 | 1.48463 ± 0.00068 | 1.48023 ± 0.00068 | 1.47673 ± 0.00068 | 1.47267 ± 0.00068 | 1.47055 ± 0.00075 | 1.46364 ± 0.00094

From the NIST ThermoML archive (doi:10.1016/j.fluid.2010.08.022)
